Reference: patent US20240034731A1, “AZA-QUINAZOLINE COMPOUNDS AND METHODS OF USE” (Iambic Therapeutics, Inc., priority 2022, published 2024)

Columns and labels:
CDK2/Cyclin E1 = CDK2/Cyclin E1 (Homo sapiens (Human), UniProt P24941); test: CDK2/Cyclin E1 Full length ADP-Glo Kinase Assay; assay type: biochemical; conditions: 20 uM ATP, read-out: CDK2/ CyclinE1 IC50
Experimental: CDK2/Cyclin E1 Full length ADP-Glo Kinase Assay
(§1) The purpose of CDK2/Cyclin E1 assay is to evaluate the inhibition (% inhibition and IC50 values) of small molecule inhibitors by using a Luminescent based ADP-Glo assay. CDK2/Cyclin E1 full length catalyzes the production of ADP from ATP. ADP-Glo assay monitors ADP producing biochemical reactions. ADP-Glo is performed in 2 steps upon completion of kinase reaction: a combined termination of kinase reaction and depletion of remaining ATP in the first step, and conversion of generated ADP to ATP and the newly produced ATP to light output using luciferase/luciferin reaction in the second step. The luminescent signal generated is proportional to the ADP concentration produced and is correlated with the kinase activity. CDK2/Cyclin E1 was purchased from Eurofins (Cat 14-475M). […] The assay was initiated with the addition of ATP-containing substrate solution, following a 30-minute pre-incubation of enzyme and inhibitor at room temperature in the reaction mixture. The reaction was stopped after 90 minutes at room temperature by the addition of 10 uL of ADP-GLO Reagent. After a 90 minute incubation, 20 uL of Kinase Detection Reagent was added. Samples were incubated for 40 minutes, after which plate well luminescence was measured on a Envision microplate reader. The IC50 determinations were made from a plot of the fractional velocity as a function of inhibitor concentration fit to the 4 parameters IC50 equation.

CDK6/Cyclin D3 = CDK6/Cyclin D3 (Homo sapiens (Human), UniProt Q00534); test: CDK6/Cyclin D3 ADP-Glo Kinase Assay; assay type: biochemical; conditions: 100 uM ATP, read-out: CDK6/ CyclinD3 IC50
CDK6/Cyclin D3, sequence (Q00534 whole entry): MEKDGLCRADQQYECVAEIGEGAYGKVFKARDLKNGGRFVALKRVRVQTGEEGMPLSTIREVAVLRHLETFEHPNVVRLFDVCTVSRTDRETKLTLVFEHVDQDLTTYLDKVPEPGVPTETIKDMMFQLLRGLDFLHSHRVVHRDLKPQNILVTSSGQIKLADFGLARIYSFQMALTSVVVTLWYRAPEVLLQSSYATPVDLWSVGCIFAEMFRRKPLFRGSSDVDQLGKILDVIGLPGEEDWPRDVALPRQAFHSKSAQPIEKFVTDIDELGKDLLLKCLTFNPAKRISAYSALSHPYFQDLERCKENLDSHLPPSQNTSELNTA
CDK6/Cyclin D3, sequence (P30281 whole entry partner): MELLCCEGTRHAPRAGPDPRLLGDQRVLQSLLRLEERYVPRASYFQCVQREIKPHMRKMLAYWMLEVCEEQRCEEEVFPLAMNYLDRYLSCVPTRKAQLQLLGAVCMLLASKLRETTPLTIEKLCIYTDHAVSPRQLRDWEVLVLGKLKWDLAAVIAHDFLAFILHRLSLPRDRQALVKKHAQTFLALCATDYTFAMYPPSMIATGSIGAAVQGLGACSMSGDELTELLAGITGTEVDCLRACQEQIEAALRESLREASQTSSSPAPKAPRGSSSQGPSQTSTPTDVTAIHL
Experimental: CDK6/Cyclin D3 ADP-Glo Kinase Assay
The purpose of the CDK6/Cyclin D3 assay is to evaluate the inhibition (% inhibition and IC50 values) in the presence of small molecule inhibitors by using a Luminescent based ADP-Glo assay. CDK6/Cyclin D3 catalyzes the production of ADP from ATP. ADP-Glo assay monitors ADP producing biochemical reactions. ADP-Glo is performed in 2 steps upon completion of kinase reaction: a combined termination of kinase reaction and depletion of remaining ATP in the first step, and conversion of generated ADP to […] and the newly produced ATP to light output using luciferase/luciferin reaction in the second step. The luminescent signal generated is proportional to the ADP concentration produced and is correlated with the kinase activity CDK6/Cyclin D3 was purchased from Carna. […] The assay was initiated with the addition of ATP-containing substrate solution, following a 30-minute pre-incubation of enzyme and inhibitor at room temperature in the reaction mixture. The reaction was stopped after 90 minutes at room temperature by the addition of 10 uL of ADP-GLO Reagent. After a 90-minute incubation, 20 uL of Kinase Detection Reagent was added. Samples were incubated for 40 minutes, after which plate well luminescence was measured on a Envision microplate reader. The IC50 determinations were made from a plot of the fractional velocity as a function of inhibitor concentration fit to the 4 parameters IC50 equation.

OVCAR-3 cells = test: Cell Growth Inhibition, OVCAR-3 (CellTiterGlo, 6 days); assay type: cell-based; conditions: Homo sapiens, 144 h, OVCAR-3, 6-day treatment
Source text: (§2) MCF-7 and OVCAR-3 cells were used to evaluate the anti-proliferation activity of the CDK inhibitors. MCF-7 (ATCC, HTB-22) cells are epithelial cells from a patient with ER+ metastatic adenocarcinoma. OVCAR-3 (ATCC, HTB-161) cells were derived from malignant ascites of a patient with ovarian cancer and are known to have CCNE1 amplification. Both cell lines were maintained in RPMI media supplemented with 10% fetal bovine serum. For cell growth inhibition assay, CDK inhibitors in DMSO solution were dispensed with either Echo 655 (Beckman Coulter) or Tecan D300e (HP) into 384-well plates (Corning #3765) and the 384-well plates were UV-sterilized prior to the assay. The inhibitors were typically tested in the 10-10,000 nM concentration range with half-log serial dilutions. MCF-7 or OVCAR-3 (500 cells/30 μL/well) were added to each well using Multidrop Combi (ThermoFisher) using standard cassettes. The assay plates with cells were cultured at 37° C., 5% CO2 for 6 days. At the end of the 6-day treatment, 30 μL of CellTiterGlo 2.0 (Promega) was added to each well and the luminescent signal was read using CLARIOstar plus (BMG). The percentage of cell growth inhibition (% CGI) was calculated using the following formula 00 CGI=100-100×luminescencesampie/luminescencecontroi. The half maximal inhibitory concentration (IC50) was determined by nonlinear curve fitting (four parameters, variable slope).

CDK4/Cyclin D1 = CDK4/Cyclin D1 (Homo sapiens (Human), UniProt P11802); test: CDK4/Cyclin D1 CHEF Assay (AQT0258 peptide); assay type: biochemical; conditions: 200 uM ATP, read-out: CDK4/ CyclinD1 AQT IC50
CDK4/Cyclin D1, sequence (P11802 whole entry): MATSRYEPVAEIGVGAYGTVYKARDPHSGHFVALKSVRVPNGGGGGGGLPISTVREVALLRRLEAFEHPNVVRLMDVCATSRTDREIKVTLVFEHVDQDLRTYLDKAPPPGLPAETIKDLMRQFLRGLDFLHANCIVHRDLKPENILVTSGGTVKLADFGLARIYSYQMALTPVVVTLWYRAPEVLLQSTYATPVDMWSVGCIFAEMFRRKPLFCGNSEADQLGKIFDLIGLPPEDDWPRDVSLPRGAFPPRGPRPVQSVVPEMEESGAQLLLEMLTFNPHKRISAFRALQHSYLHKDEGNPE
CDK4/Cyclin D1, sequence (P24385 whole entry partner): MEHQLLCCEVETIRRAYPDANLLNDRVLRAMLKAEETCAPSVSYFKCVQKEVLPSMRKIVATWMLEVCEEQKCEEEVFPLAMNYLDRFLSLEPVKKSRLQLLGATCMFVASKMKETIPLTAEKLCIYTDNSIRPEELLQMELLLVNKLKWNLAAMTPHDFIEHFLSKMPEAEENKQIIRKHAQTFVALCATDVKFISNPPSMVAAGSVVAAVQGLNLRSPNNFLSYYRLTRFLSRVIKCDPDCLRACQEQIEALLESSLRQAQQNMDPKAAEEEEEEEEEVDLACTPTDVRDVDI
Source text: CDK4/Cyclin D1 CHEF Assay
The purpose of CDK4/Cyclin D1 assay is to evaluate the inhibition (% inhibition and IC50 values) of small molecule inhibitors by using a Chelation-Enhance Fluorescence (CHEF) assay. In a CHEF assay, phosphorylation of a peptide substrate results in proportional increase in fluorescence. CHEF kinase assay use peptide substrates containing a synthetic alpha-amino acid with a side chain bearing an 8-hydroxyquinoline derivative (sulfonamido-oxide, Sox). Upon phosphorylation of a nearby serine, threonine or tyrosine and in the presence of Mg(II), the spectral properties of the Sox residue are altered, emitting 485 nm wavelength light when excited with a 360 nm wavelength light source. CDK4/Cyclin D1 catalyzes the phosphoryl transfer to the SOX-labeled substrate peptide AQT0258 from Assayquant Technologies. […] The reaction was initiated with the addition of substrate solution, following a 30-minute pre-incubation of enzyme and inhibitor at 22° C. in the reaction mix. Reactions were allowed to proceed for 3 hrs at 22° C., followed by fluorescence read of the reaction. The IC50 determinations were made from a plot of the fractional velocity as a function of inhibitor concentration fit to the 4 parameters IC50 equation.

MCF-7 cells = test: Cell Growth Inhibition, MCF-7 (CellTiterGlo, 6 days); assay type: cell-based; conditions: Homo sapiens, MCF7, 144 h, MCF-7, 6-day treatment
Source text: as §2

CDK1/Cyclin B1 = CDK1/Cyclin B1 (Homo sapiens (Human), UniProt P06493); test: CDK1/Cyclin B1 ADP-Glo Kinase Assay; assay type: biochemical; conditions: ADP-Glo, 80 uM ATP; read-out: CDK1 Cyclin B1 IC50
CDK1/Cyclin B1, sequence (P06493 whole entry): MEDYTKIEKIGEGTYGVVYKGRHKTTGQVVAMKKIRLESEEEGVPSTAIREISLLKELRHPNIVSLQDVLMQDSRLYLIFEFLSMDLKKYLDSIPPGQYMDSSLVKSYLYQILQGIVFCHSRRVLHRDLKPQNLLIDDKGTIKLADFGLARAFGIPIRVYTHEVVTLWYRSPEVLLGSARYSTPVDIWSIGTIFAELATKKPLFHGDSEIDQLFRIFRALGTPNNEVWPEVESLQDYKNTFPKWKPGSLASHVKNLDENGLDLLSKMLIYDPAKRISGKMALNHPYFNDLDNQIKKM
CDK1/Cyclin B1, sequence (P14635 whole entry partner): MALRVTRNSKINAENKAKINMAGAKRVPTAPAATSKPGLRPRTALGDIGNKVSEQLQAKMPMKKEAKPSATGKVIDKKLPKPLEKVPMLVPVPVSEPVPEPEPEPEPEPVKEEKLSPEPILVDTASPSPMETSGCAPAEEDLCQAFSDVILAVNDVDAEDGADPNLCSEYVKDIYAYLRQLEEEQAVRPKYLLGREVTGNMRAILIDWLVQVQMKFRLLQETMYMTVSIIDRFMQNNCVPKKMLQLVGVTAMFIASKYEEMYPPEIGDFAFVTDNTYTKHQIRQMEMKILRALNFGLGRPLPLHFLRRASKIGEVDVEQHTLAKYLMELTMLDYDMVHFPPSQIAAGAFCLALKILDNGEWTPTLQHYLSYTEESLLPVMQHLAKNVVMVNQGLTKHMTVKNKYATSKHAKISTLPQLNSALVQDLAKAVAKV
Experimental: CDK1/Cyclin B1 ADP-Glo Kinase Assay
as §1, with “CDK1/Cyclin B1” for “CDK2/Cyclin E1”, “CDK1/Cyclin B1” for “CDK2/Cyclin E1 full length”, “Carna” for “Eurofins”, “04-102).” for “14-475M).”

| IC50 (CDK2/Cyclin E1) [nM] | IC50 (CDK6/Cyclin D3) [nM] | IC50 (OVCAR-3 cells) [nM] | IC50 (CDK4/Cyclin D1) [nM] | IC50 (MCF-7 cells) [nM] | IC50 (CDK1/Cyclin B1) [nM] | Structure (SMILES) |
| --- | --- | --- | --- | --- | --- | --- |
| 200 to 500 | < 200 | 500 to 2000 | < 200 | 500 to 2000 | > 2000 | Cc1cc2cnc(Nc3ccc(N4CC5(CN(C)C5)C4)cc3)nc2c(N2CCC3(CCOCC3)C2)n1 [Compound 35, 6-methyl-N-(4-(6-methyl-2,6-diazaspiro[3.3]heptan-2-yl)phenyl)-8-(8-oxa-2-azaspiro[4.5]decan-2-yl)pyrido[3,4-d]pyrimidin-2-amine] |
| 200 to 500 | 500 to 2000 | > 2000 | 200 to 500 | > 2000 | > 2000 | Cc1cc2cnc(Nc3cnn(CC4(N(C)C)CC4)c3)nc2c(N2CCC3(C2)CC3(F)F)n1 (stereo not drawn) [Compound 36, 8-(1,1-difluoro-5-azaspiro[2.4]heptan-5-yl)-N-(1-((1-(dimethylamino)cyclopropyl)methyl)-1H-pyrazol-4-yl)-6-methylpyrido[3,4-d]pyrimidin-2-amine] |
| 200 to 500 | > 2000 | > 2000 | > 2000 | > 2000 | > 2000 | Cc1cc2cnc(Nc3cc4c(cc3F)CN(S(C)(=O)=O)C4)nc2c(N2CC3(CNC3)C2)n1 [Compound 37, N-(6-fluoro-2-(methylsulfonyl)isoindolin-5-yl)-6-methyl-8-(2,6-diazaspiro[3.3]heptan-2-yl)pyrido[3,4-d]pyrimidin-2-amine] |
| < 200 | > 2000 | 500 to 2000 | 500 to 2000 | > 2000 | > 2000 | Cc1cc2cnc(Nc3cnn(CC4(N(C)C)CC4)c3)nc2c(N2CCC(C#N)(C3CC3)C2)n1 (stereo not drawn) [Compound 38, 3-cyclopropyl-1-(2-((1-((1-(dimethylamino)cyclopropyl)methyl)-1H-pyrazol-4-yl)amino)-6-methylpyrido[3,4-d]pyrimidin-8-yl)pyrrolidine-3-carbonitrile] |
| < 200 | < 200 | 500 to 2000 | < 200 | 500 to 2000 | > 2000 | Cc1cc2cnc(N[C@H]3CC[C@H](CN(C)C)CC3)nc2c(N2CCC3(C2)CC3(F)F)n1 (stereo partly drawn) [Compound 40, 8-(1,1-difluoro-5-azaspiro[2.4]heptan-5-yl)-N-((1r,4r)-4-((dimethylamino)methyl)cyclohexyl)-6-methylpyrido[3,4-d]pyrimidin-2-amine] |

The remaining lines, values behind:

| Structure (SMILES) | IC50 (CDK2/Cyclin E1) [nM] | IC50 (CDK6/Cyclin D3) [nM] | IC50 (OVCAR-3 cells) [nM] | IC50 (CDK4/Cyclin D1) [nM] | IC50 (MCF-7 cells) [nM] | IC50 (CDK1/Cyclin B1) [nM] |
| --- | --- | --- | --- | --- | --- | --- |
| Cc1cc2cnc(Nc3ccc(N4CC5(CN(C)C5)C4)cc3)nc2c(N2CC3(C2)CS(=O)(=O)C3)n1 [Compound 30, 6-(6-methyl-2-((4-(6-methyl-2,6-diazaspiro[3.3]heptan-2-yl)phenyl)amino)pyrido[3,4-d]pyrimidin-8-yl)-2-thia-6-azaspiro[3.3]heptane 2,2-dioxide] | 200 to 500 | 200 to 500 | > 2000 | 200 to 500 | > 2000 | > 2000 |
| Cc1cc2cnc(Nc3cnn(C4CN(CC#N)C4)c3)nc2c(N2CC3(CN(C)C3)C2)n1 [Compound 31, 2-(3-(4-((6-methyl-8-(6-methyl-2,6-diazaspiro[3.3]heptan-2-yl)pyrido[3,4-d]pyrimidin-2-yl)amino)-1H-pyrazol-1-yl)azetidin-1-yl)acetonitrile] | < 200 | > 2000 | > 2000 | > 2000 | > 2000 | > 2000 |
| Cc1cc2cnc(NC3CCN(S(=O)(=O)C4CC4)CC3)nc2c(N2CC3(CNC3)C2)n1 [Compound 32, N-(1-(cyclopropylsulfonyl)piperidin-4-yl)-6-methyl-8-(2,6-diazaspiro[3.3]heptan-2-yl)pyrido[3,4-d]pyrimidin-2-amine] | < 200 | < 200 | 500 to 2000 | < 200 | 500 to 2000 | 500 to 2000 |
| Cc1cc2cnc(Nc3cnn(C4CC5(C4)CN(C)C5)c3)nc2c(N2CCC3(C2)CC3(F)F)n1 (stereo not drawn) [Compound 33, 8-(1,1-difluoro-5-azaspiro[2.4]heptan-5-yl)-6-methyl-N-(1-(2-methyl-2-azaspiro[3.3]heptan-6-yl)-1H-pyrazol-4-yl)pyrido[3,4-d]pyrimidin-2-amine] | 200 to 500 | < 200 | 500 to 2000 | < 200 | 500 to 2000 | 500 to 2000 |
| Cc1cc2cnc(Nc3ccc(N4CC5(CN(C)C5)C4)cc3)nc2c(N2CCC3(C2)CC3(F)F)n1 (stereo not drawn) [Compound 34, 8-(1,1-difluoro-5-azaspiro[2.4]heptan-5-yl)-6-methyl-N-(4-(6-methyl-2,6-diazaspiro[3.3]heptan-2-yl)phenyl)pyrido[3,4-d]pyrimidin-2-amine] | < 200 | < 200 | 500 to 2000 | < 200 | 500 to 2000 | 500 to 2000 |
